According to article PMC7144397 (Molecules, 2020):

Biological target: myotoxic Asp-49 phospholipase A2 (PLA2) from Crotalus durissus cumanensis venom
Test: chromogenic PLA2 assay, […] nm, 96-well plate
Format: biochemical
Conditions: substrate 4-nitro-3-octanoyloxybenzoic acid type (4N3OBA, 20 μL of 10 mM); 10 mM Tris-HCl, 10 mM CaCl2, 100 mM NaCl, pH 8.0; 37 °C; 20 μg PLA2, 30 min pre-incubation; from linear portion of the dose-r

SMILES: O=[N+]([O-])c1ccc(C(=S)SCc2ccccc2)cc1 [I, Benzyl 4-nitrobenzenecarbodithioate]
- IC50: 55.6 ± 4.6 µM
